The results in this text go back to PubChem BioAssay AID1117319 (Southern Research Institute, 2015).

Structures are written as SMILES. Inconclusive results are not listed.

The test has as its target Virion infectivity factor (Human immunodeficiency virus type 1 group M subtype B (isolate BH10)) + Virion infectivity factor (Human immunodeficiency virus type 1 group M subtype B (isolate BRU/LAI)) + Virion infectivity factor (Human immunodeficiency virus type 1 group M subtype B (isolate PCV12)) + Virion infectivity factor (Human immunodeficiency virus type 1 group M subtype B (isolate HXB2)) + DNA dC->dU-editing enzyme APOBEC-3G (Homo sapiens) (UniProt P69720+P69721+P69722+P69723+Q9HC16). Briefly: HIV-1 Vif–A3G interaction blockers – biochemical, TR-FRET, GST-Vif 1-94, biotin-A3G peptide, dose response retest, primary screen (AID 1117319).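 Note: Vif residues 1-94 fused to GST binding biotinylated APOBEC3G peptide 110-148.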 As to conditions: TR-FRET GST-Vif / biotin-A3G peptide binding. (In general: TR-FRET usually uses a lanthanide donor and a delayed reading to cut background.)
One may read the IC50 as the concentration that inhibits the measured activity by half. For `COc1ccccc1NC(=O)c1oc2ccc(C)cc2c1C`, the IC50 is 98 µM.
With `CCOC(=O)C1=C(O)/C(=C/c2ccc(CNC(=O)C(=O)Nc3ccc(C)cc3)o2)N=C1C` the figure was 33.3 µM.
Then `COc1ccc(NC(=O)c2cc(-c3ccco3)nc3ccccc23)cc1S(=O)(=O)N1CCOCC1`, with 2.38 µM; and `Cc1cccc(/C=C(\C(=O)O)c2ccc(S(=O)(=O)N3CCCC3)s2)c1`, with 22 µM.
Then `CCCC(=Nc1ccc(N)cc1)C1=C(O)C(C(=O)OC)C(C)(C)CC1=O` (stereo not given), with 2.76 µM; and `Cc1cc2c(=Cc3ccc(N(C)C)cc3)c3ccccc3n2[n+]1C`, with 16.9 µM; and `CCCCOc1ccccc1C1NC(=O)NC(C)=C1C(=O)OCc1ccco1` (stereo not given), with 57.3 µM.
Take `N#CC(C(=O)NCc1ccco1)c1nc2ccccc2nc1N1CCOCC1` (stereo not given): the 50% inhibitory concentration (IC50) is 51.7 µM.
With `CCN(CC(=O)Nc1c(C(=O)OC)[nH]c2ccccc12)c1ccc2c(c1)OCO2` the figure was 5.84 µM.
With `CCOC(=O)C(=O)NCc1ccc(/C=C2/N=C(C)C(C(=O)OCC)=C2O)o1` the figure was 6.18 µM; with `CCCCC(=O)NC(=S)Nc1cc(C(=O)O)ccc1Cl`, 16 µM; with `COC(=O)c1ccccc1NC(=O)c1noc2c1CCC2`, 26 µM.
With `CC(Cc1c[nH]c2ccccc12)C(=O)NCc1ccco1` (stereo not given) the figure was 33 µM; with `Cc1cccc(OCCn2cccc2/C=C2/C(=O)NC(=O)N(Cc3ccco3)C2=O)c1`, 4.18 µM; with `CC(C(=O)O)N1C(=O)/C(=C/C=C/c2ccco2)SC1=S` (stereo not given), 0.39 µM.
`Cc1cc(NC(=O)CCNS(=O)(=O)c2cc(Br)cnc2N)ccc1Br`: the IC50 was 35.2 µM.
Take `COc1ccccc1CNC(=O)COC(=O)c1cc(-c2ccco2)nc2ccccc12`: the IC50 is 9.99 µM.
Consider `O=C(OCC1O[C@@H](OC(=O)c2cc(O)c(O)c(O)c2)[C@@H](OC(=O)c2cc(O)c(O)c(O)c2)[C@@H](OC(=O)c2cc(O)c(O)c(O)c2)[C@@H]1OC(=O)c1cc(O)c(O)c(O)c1)c1cc(O)c(O)c(O)c1` (stereo not given in full), for which the IC50 is less than 0.195 µM.
With `CC1=NN(c2cccc(C(=O)O)c2)C(=O)/C1=C\C=C\c1ccco1` the figure was 2.89 µM; with `CCOC(=O)c1ccc(NS(=O)(=O)c2ccc3oc(=O)[nH]c3c2)cc1`, 88.2 µM.
With `CC(=O)c1sc2nc(-c3ccco3)ccc2c1N` the figure was 2.78 µM; with `CCNc1ccc(Br)cc(C(=O)/C=C/c2ccc(Cl)cc2)c1=O`, 7.05 µM; with `CC[n+]1c(/C=C2/C=C(C)CC(C)(C)C2)sc2ccc(OC)cc21`, 21.7 µM.
Turning to `NC1=NC(=O)/C(=C\c2ccco2)S1`, the IC50 was 3.07 µM.
With `O=C(N/N=C/c1cccnc1)c1cc(O)c(O)c(O)c1` the figure was 21.7 µM; with `CCOC(=O)C1CCN(C(=O)COc2ccc(S(=O)(=O)NC(C)C)cc2)CC1`, 27.8 µM.
Then `Cc1sc2ncnc(SCc3ccco3)c2c1C`, with 28.2 µM.
Regarding `COc1ccc(CCNC(=O)c2ccc3nc(-c4ccco4)c(-c4ccco4)nc3c2)cc1OC`, the IC50 was 0.45 µM.
With `COc1ccc(NC(=S)NCCc2ccccc2OC)c(OC)c1` the figure was 7.02 µM; with `COc1cc(/C=C2\CC/C(=C\c3cc(OC)c(O)c(OC)c3)C2=O)cc(OC)c1O`, 1.56 µM; with `O=C(CN1C(=O)NC2(CCCCCCC2)C1=O)NCc1ccc2c(c1)OCO2`, 99.2 µM.
As for `Cn1c(SCC(=O)c2cc(Cl)c(Cl)s2)nnc1-c1ccco1`, the IC50 is 30.7 µM.
As to `NS(=O)(=O)c1ccc2c(c1)C1C=CCC1C(C1CC=CCC1)N2` (stereo not given), the 50% inhibitory concentration (IC50) was 3.42 µM.
With `O=c1cc(-c2ccc(O)cc2)oc2c(O)c(O)c(O)c(O)c12` the figure was 22.1 µM.
Then `Cc1ccc(/C=C/C(=O)Nc2ncc(C)s2)o1`, with 7.07 µM; and `N#CC(C#N)=Cc1cccn1-c1ccc(C(=O)O)cc1`, with 10.3 µM.
Turning to `COc1ccc(NS(=O)(=O)c2cccc(Cl)c2Cl)cc1S(=O)(=O)N1CCCCC1`, the IC50 was 76.1 µM.
Then `COc1cccc2c1NC(C(=O)O)C1CC=CC21` (stereo not given), with less than 0.398 µM.
Then `CCCOc1ccc(Cc2nn3c(=O)/c(=C/c4ccco4)sc3nc2=O)cc1`, with 1.5 µM.
With `Cn1cccc1/C=C1/C(=O)NC(=O)N(Cc2ccc(F)cc2)C1=O` the figure was 8.76 µM; with `CCOc1ccc(CCNC(=O)C2CC(C)=CCC2C(=O)O)cc1OCC` (stereo not given), 56.6 µM; with `NN=C1C(Cl)=C(Cl)C(Cl)=C1Cl`, 10.6 µM.
`Cc1ncc(CO)c(/C=N/NC(=O)c2cc(O)c(O)c(O)c2)c1O`: the IC50 is 2.45 µM.
For `Cn1nnnc1SCC(=O)NCc1ccco1`, the IC50 is 42.8 µM.
Take `O=C1C2C3CCCC3=C3CCCC3C2C(=O)N1c1ccccc1` (stereo not given): the IC50 is 3.44 µM.
Then `CC1=Nc2nc(N3CCCCC3)c(C#N)c3c4c(nc(c23)N1)N(c1ccc(C(C)C)cc1)C(=O)C4`, with 5.27 µM.
For the molecule `CN1CCc2cccc3c2[C@H]1Cc1ccc(O)c(O)c1-3`, the IC50 was 0.89 µM.
Then `COc1cc(/C=C/C=C2/CC/C(=C/C=C/c3ccc(O)c(OC)c3)C2=O)ccc1O`, with 4.03 µM.
With `CCn1c(COc2ccc3c(c2)OCO3)nnc1SCC(=O)c1ccc(Cl)cc1`, the 50% inhibitory concentration (IC50) was 78.1 µM.
With `O=[N+]([O-])c1cc(-c2ccc(/C=N/c3nc4ccccn4c3-c3ccco3)o2)ccc1Cl` the figure was 10 µM; with `O=S(=O)(O)c1cc(O)c2c(O)c(N=Nc3cc(Cl)ccc3O)c(S(=O)(=O)O)cc2c1`, 78.5 µM.
Then `Cc1ccc(-n2nc(C)c(C3C(C#N)=C(N)Oc4c3c(=O)oc3ccccc43)c2Cl)cc1` (stereo not given), with 11.1 µM; and `COc1cccc(-c2cn3nc4c(nc3n2)CCCC4)c1`, with 17.6 µM; and `Cc1ccc(C)c(NC(=O)CN(C)C(=O)c2cccc(-n3cccc3)c2)c1`, with 15.4 µM.
With `CCOC(=O)C(C)N1C(=O)S/C(=C\c2ccc(-c3ccccc3C(=O)O)o2)C1=O` (stereo not given), the IC50 is 10.8 µM.
For `CCCCCC#CCC#CCC#CCC#CCCCC(=O)O`, the IC50 is 0.86 µM.
Then `O=C(NC1=CC(=O)c2ccccc2C1=O)c1ccccc1`, with 20.7 µM; and `COC/C=C/C1=CC2=CC(=O)C(C)(OC(=O)CCC(=O)OC)C(=O)C2=CO1` (stereo not given), with 1.35 µM; and `O=C(NNC(=O)c1ccccc1O)c1ccc(-c2ccc([N+](=O)[O-])cc2)o1`, with 32.3 µM.
With `CCc1ccccc1NC(=O)c1cccc(NC(=O)/C=C/c2ccco2)c1` the figure was 10.8 µM; with `O=C(O)c1cc(Nc2cc(Cl)c3nonc3c2[N+](=O)[O-])ccc1O`, 57.6 µM.
For the molecule `O=[N+]([O-])c1ccc(O)c2ncccc12`, the IC50 was 46.5 µM.
On to `O=[N+]([O-])c1ccc(N/N=C/c2ccc(O)c(O)c2O)c(S(=O)(=O)N2CCOCC2)c1`, for which the IC50 is 1.14 µM.
On to `Cc1ccc(C=C2C(Cl)=C(Cl)C(Cl)=C2Cl)cc1`, for which the IC50 was 2.1 µM.
With `O=c1nc2s/c(=C\c3ccco3)c(=O)n2nc1Cc1ccccc1` the figure was 4.18 µM; with `CC(=C/C(=O)O)/C=C/c1ccc(Cl)o1`, 27.4 µM; with `O=C(O)c1cccc(-n2cccc2/C=C/[N+](=O)[O-])c1`, 5.49 µM.
With `CN(C)c1ccc2cc(S(=O)(=O)O)cc(O)c2c1` the figure was 10.2 µM.
As for `O=C(CN1CCN(S(=O)(=O)c2ccc(Cl)s2)CC1)NCc1ccc(Cl)cc1`, the IC50 is 7.67 µM.
For `Cc1cccc(N2C(=O)NC(=O)/C(=C/c3cc4c(cc3[N+](=O)[O-])OCO4)C2=O)c1`, the IC50 is 59.1 µM.
